Measured values from publication PMC9133015 (Nature Communications, 2022).
Several values for one entry are separate records, joined by “and”; a condition that tells them apart may be missing. Equal entries are not always repeated.

Target: T1, DYRK2 (Homo sapiens, UniProt Q92630)
T1 construct: purchased Reaction Biology Corporation (assay service)
T1 sequence (Q92630 1-601): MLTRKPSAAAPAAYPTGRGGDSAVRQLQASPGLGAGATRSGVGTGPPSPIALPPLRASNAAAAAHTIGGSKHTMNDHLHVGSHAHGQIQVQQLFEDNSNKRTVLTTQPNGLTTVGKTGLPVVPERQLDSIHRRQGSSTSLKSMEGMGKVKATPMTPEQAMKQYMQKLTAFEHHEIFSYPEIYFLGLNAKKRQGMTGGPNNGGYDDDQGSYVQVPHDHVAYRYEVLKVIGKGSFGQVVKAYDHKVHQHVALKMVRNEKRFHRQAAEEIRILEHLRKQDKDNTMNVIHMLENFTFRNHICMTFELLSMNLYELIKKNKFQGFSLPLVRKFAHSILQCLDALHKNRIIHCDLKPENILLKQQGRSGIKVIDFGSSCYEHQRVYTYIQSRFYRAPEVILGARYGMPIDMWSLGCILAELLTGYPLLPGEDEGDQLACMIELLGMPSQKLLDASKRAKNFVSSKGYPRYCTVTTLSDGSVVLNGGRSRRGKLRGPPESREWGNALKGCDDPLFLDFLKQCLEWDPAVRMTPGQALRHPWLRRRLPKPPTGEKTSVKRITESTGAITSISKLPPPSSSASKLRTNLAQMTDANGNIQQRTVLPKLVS
Experiment: DYRKs kinase activity assay (33P-ATP, DYRKtide substrate): DYRK2
Type: biochemical
Conditions: for DYRK2 inhibitory activity (in words): structural optimization of lead 12; for IC50: read-out: DYRK2 IC50

[1] = DYRK2 kinase, Conc. 0.000508053 µM, duplicate values
[2] = DYRK2 kinase, Conc. 0.00152416 µM, duplicate values
[3] = DYRK2 kinase, Conc. 0.00457247 µM, duplicate values
[4] = DYRK2 kinase, Conc. 0.0137174 µM, duplicate values
[5] = DYRK2 kinase, Conc. 0.0137174 µM, duplicate values, read-out: % Inhibition
[6] = DYRK2 kinase, Conc. 0.0411523 µM, duplicate values
[7] = DYRK2 kinase, Conc. 0.0411523 µM, duplicate values, read-out: % Inhibition
[8] = DYRK2 kinase, Conc. 0.123457 µM, duplicate values
[9] = DYRK2 kinase, Conc. 0.123457 µM, duplicate values, read-out: % Inhibition
[10] = DYRK2 kinase, Conc. 0.37037 µM, duplicate values
[11] = DYRK2 kinase, Conc. 0.37037 µM, duplicate values, read-out: % Inhibition
[12] = DYRK2 kinase, Conc. 1.11111 µM, duplicate values
[13] = DYRK2 kinase, Conc. 1.11111 µM, duplicate values, read-out: % Inhibition
[14] = DYRK2 kinase, Conc. 3.33333 µM, duplicate values
[15] = DYRK2 kinase, Conc. 3.33333 µM, duplicate values, read-out: % Inhibition
[16] = DYRK2 kinase, Conc. 10 µM, duplicate values
[17] = DYRK2 kinase, Conc. 10 µM, duplicate values, read-out: % Inhibition
[18] = DYRK2 kinase, Conc. 0.00152416 µM, duplicate values, read-out: % Inhibition
[19] = DYRK2 kinase, Conc. 1.66667 µM, duplicate values

Structure (SMILES) | % Inhibition [1] | % Inhibition [2] | % Inhibition [3] | % Inhibition [4] | inhibition at 0.0137174 µM [5] [%] | % Inhibition [6] | inhibition at 0.0411523 µM [7] [%] | % Inhibition [8] | inhibition at 0.123457 µM [9] [%] | % Inhibition [10] | inhibition at 0.37037 µM [11] [%] | % Inhibition [12] | inhibition at 1.11111 µM [13] [%] | % Inhibition [14] | inhibition at 3.33333 µM [15] [%] | % Inhibition [16] [%] | inhibition at 10 µM [17] [%] | DYRK2 inhibitory activity (in words) | inhibition at 0.00152416 µM [18] [%] | inhibition at 0.00457247 µM [3] [%] | also measured
CC(C)(C)OC(=O)N1CCN(Cc2ccc(Nc3ncc(F)c(-c4ccc5ncsc5c4)n3)nc2)CC1 [Compound 17] | -1.98% and -2.03% | -0.44% and -0.45% | -0.11% and -0.23% | 0.54% | 0.53 | 9.25% | 8.33 | 18.48% | 18.1 | 37.11% | 36.6 | 48.09% | 47 | 58.92% | 57.6 | 60.62 | 59.4 | significantly decreased activity |  |  | 
Cl.Fc1cnc(Nc2ccc(CN3CCNCC3)cn2)nc1-c1ccc2ncsc2c1 [Compound 18] |  |  |  | 12.10% | 9.69 | 21.24% | 19 | 36.98% | 36.4 | 58.36% | 56 | 75.32% | 75.1 | 88.49% | 88.2 | 94.11 | 93.9 |  | -1.56 | -2.27 | inhibition at 0.000508053 µM [1]: -3.69%
CCN1CCN(Cc2ccc(Nc3ncc(F)c(-c4cnc5ccnn5c4)n3)nc2)CC1 [Compound 19] | -1.87% and -5.39% | -4.33% and -7.82% | -8.64% and -11.90% | -12.62% and -14.01% |  | -8.54% and -12.22% |  | 0.35% and 0.01% |  | 1.52% and -0.10% |  | 6.04% | 8.33 | 1.80% and -0.24% |  | 26.16 | 28 | significantly decreased |  |  | 
Cl.Fc1cnc(Nc2ccc(N3CCNCC3)cn2)nc1-c1ccc2ncsc2c1 [Compound 21] | 9.05% | 8.33% | 11.99% | 16.84% | 14 | 38.81% | 36.7 | 56.81% | 55.4 | 75.73% | 74 | 88.57% | 86.9 | 94.50% | 95.3 | 95.74 | 96.6 |  | 12.2 | 13.8 | inhibition at 0.000508053 µM [1]: 8.81%; IC50: 85 nM
CCN1CCN(C(=O)c2cnc(Nc3ncc(F)c(-c4ccc5ncsc5c4)n3)nc2)CC1 [Compound 22] | -2.89% |  | 2.13% |  | 3.91 |  | 13.2 | 26.76% | 25 |  | 35.1 | 58.80% | 58.5 | 75.98% | 76.2 | 87.41 | 87.2 |  | 0.87 | 2.31 | IC50: 697 nM
CCN1CCN(C(=O)c2ccc(Nc3ncc(F)c(-c4ccc5nc(C)sc5c4)n3)nc2)CC1 [Compound 23] | 9.47% | 18.47% | 32.91% | 41.99% | 41.4 | 56.16% | 55.9 | 70.45% | 70.4 |  | 84.9 |  | 92.2 |  | 95.8 |  | 96.2 |  | 20.2 | 32.2 | inhibition at 0.000508053 µM [1]: 9.2%; IC50: 22 nM
Cc1nc2ccc(-c3nc(Nc4ccc(C(=O)N5CCNCC5)cn4)ncc3F)cc2s1.Cl [Compound 24] | 2.20% and 10.58% | 4.62% and 14.25% | 24.52% | 39.86% | 35.4 | 60.50% | 61 | 75.45% | 73 | 85.34% | 86.1 | 90.57% | 92 | 94.68% | 95 | 98.21 | 97 |  |  | 19.2 | IC50: 27 nM
CC(C)N1CCN(C(=O)c2ccc(Nc3ncc(F)c(-c4ccc5nc(N(C)C)sc5c4)n3)nc2)CC1 [Compound 25] | 4.24% and 12.86% | 17.49% | 28.06% | 45.74% | 44.6 | 67.90% | 69.6 | 84.14% | 84.5 | 92.83% | 93.3 | 95.77% | 98 | 95.36% | 94.3 | 95.58 | 96.2 | further improved DYRK2 inhibitory activity | 14 | 27.4 | 
CCN1CCN(C(=O)c2ccc(Nc3ncc(F)c(-c4ccc5nc(N(C)C)sc5c4)n3)nc2)CC1 [Compound 26 (YK-2-69)] |  |  |  |  |  |  |  |  |  |  |  |  |  |  |  |  |  |  |  |  | % Inhibition (DYRK2 kinase, Conc. 0.000762079 µM, duplicate values): 2.89% and 7.10%; % Inhibition (DYRK2 kinase, Conc. 0.00228624 µM, duplicate values): 21.49%; inhibition at 0.00228624 µM (DYRK2 kinase, Conc. 0.00228624 µM, duplicate values, read-out: % Inhibition): 26.1%; % Inhibition (DYRK2 kinase, Conc. 0.00685871 µM, duplicate values): 46.13%; inhibition at 0.00685871 µM (DYRK2 kinase, Conc. 0.00685871 µM, duplicate values, read-out: % Inhibition): 53%; % Inhibition (DYRK2 kinase, Conc. 0.0205761 µM, duplicate values): 59.65%; inhibition at 0.0205761 µM (DYRK2 kinase, Conc. 0.0205761 µM, duplicate values, read-out: % Inhibition): 65.2%; % Inhibition (DYRK2 kinase, Conc. 0.0617284 µM, duplicate values): 82.13%; inhibition at 0.0617284 µM (DYRK2 kinase, Conc. 0.0617284 µM, duplicate values, read-out: % Inhibition): 82.1%; % Inhibition (DYRK2 kinase, Conc. 0.185185 µM, duplicate values): 93.18%; inhibition at 0.185185 µM (DYRK2 kinase, Conc. 0.185185 µM, duplicate values, read-out: % Inhibition): 94.1%; % Inhibition (DYRK2 kinase, Conc. 0.555556 µM, duplicate values): 96.77%; inhibition at 0.555556 µM (DYRK2 kinase, Conc. 0.555556 µM, duplicate values, read-out: % Inhibition): 96.8%; % Inhibition [19]: 98.11%; inhibition at 1.66667 µM [19]: 97.3%; % Inhibition (DYRK2 kinase, Conc. 5 µM, duplicate values): 97.16%; inhibition at 5 µM (DYRK2 kinase, Conc. 5 µM, duplicate values, read-out: % Inhibition): 97.8%
CCN1CCN(C(=O)c2ccc(Nc3nc(-c4ccc5nc(N(C)C)sc5c4)c4sccc4n3)nc2)CC1 [Compound 27] | -2.37% and 0.19% | 1.48% | 3.31% and -4.82% | 5.42% and 2.62% |  | -2.71% and -6.99% |  | 2.56% and -2.91% |  | 3.14% and 0.34% |  | -1.20% and -1.05% |  | 2.76% | 2.35 | 7.55 | 7.66 | no inhibition | 1.6 |  | 
